Assay results taken from EP2508171B1, “Pharmaceutical magnetic nano-particle composition” (Universitätsklinikum Erlangen, priority 2011, dated 2012).
Like-named read-outs stand apart in the source and are kept apart here.

Experiment: Biodistribution and biodegradation after i.v. application (HPLC of MTO, SQUID/MRX of iron oxide)
Assay type: in vivo, New Zealand White Rabbits
Conditions: for concentration at 24 h: New Zealand White, rabbit, iv, regular systemic dose of pure MTO (10 mg MTO/m2 body surface), n=6, HPLC
Protocol: For the animal experiments New Zealand White Rabbits were used. The animals, weighing about 4.5 - 5.2 kg, were treated (i.v.) with ferrofluid bound MTO containing a drug amount of 10% compared to the regular systemic dose which requires 10 mg MTO/m2 body surface (n=5). The other study group (n=6) received the regular systemic dose of pure MTO. After 24h hours the animals were sacrificed and the organs harvested. Complete organs of liver and kidneys were processed and MTO was extracted for HPLC-analysis. Tissue homogenates have also been measured by SQUID.

SMILES: O=C1c2c(O)ccc(O)c2C(=O)c2c(NCCNCCO)ccc(NCCNCCO)c21 [pure MTO, mitoxantron]
- concentration at 24 h (kidney, read-out: MTO concentration in kidneys): 8500 ng/g
- concentration at 24 h (liver, read-out: MTO concentration in liver tissue): 190 ng/g
- MTO enrichment in kidneys relative to liver (pure i.v. injection of MTO, regular systemic dose, 24h): 44 fold
